# Key:
# [1] = test system: JC syngeneic mouse breast adenocarcinoma-derived subcutaneous tumor; assay: JC Study 6: mouse JC syngeneic tumor model, individual tumor volume; assay type: in vivo; conditions: Compound I-263a 7.5 mg/kg IV or anti-mPD-1 10 mg/kg IP, BIWx3 till Day 14
# Method: JC Study 6: JC is a mouse breast adenocarcinoma cell line. JC mouse syngeneic tumor model was generated by subcutaneous inoculation with 0.2×10^6 JC cells (cell suspension) in 10 weeks old female BALB/c mice (Vital River Laboratory Animal Technology Co., Ltd., Beijing, China) in the flank. When the mean tumor volume reached approximately 45 mm^3, the animals were randomized into one vehicle control and five treatment groups (n=8/group). Mice were then dosed with 20% HPbCD or Compound I-263a or anti-mouse PD-1 antibody over a 21-day period. Tumor growth and body weight were measured twice per week during the treatment and post-treatment periods, and mice were humanely euthanized once they had reached their humane endpoint.
# (§1) Study 6: A 0.75 mg/mL stock solution of Compound I-263a was formulated weekly in 20% HPβCD and administered intravenously (IV) based on exact animal body weight on each day of treatment, using a dosing volume of 10 mL/kg body weight. Final doses received were 7.5 mg/kg. Dosing volume for Compound I-263a was 0.2 mL. […]
# (§2) Tumors were measured twice weekly using vernier calipers. Tumor volumes were calculated using standard equation: V=W^2×L/2, where V=volume, W=width, and L=length for the tumor. […] Tumor size and body weight were measured twice a week for the duration of the study. […]
# [2] = test system: CT26 syngeneic mouse colon fibroblast carcinoma-derived subcutaneous tumor; assay: CT26 Study 1: mouse CT26 syngeneic tumor model, individual tumor volume; assay type: in vivo; conditions: Compound I-263a 7.5 mg/kg IV Day 1, 4; anti-mPD-1 10 mg/kg IP Day 1, 4, 8, 11; 8 mice/group
# Method: CT26 Study 1: CT26 is a mouse colon fibroblast carcinoma cell line. CT26 mouse syngeneic tumor model was generated by subcutaneous inoculation with 0.2×10^6 CT-26 cells (cell suspension) in 12 weeks old female BALB/c mice (Jackson Laboratory, 600 Main St, Bar Harbor, ME) in the flank. When the mean tumor volume reached approximately 60 mm^3, the animals were randomized into one vehicle control and three treatment groups (n=8/group). Mice were then dosed with 20% HPbCD or Compound I-263a or anti-mouse PD-1 antibody over a 14-day period. Tumor growth and body weight were measured twice per week during the treatment and post-treatment periods, and mice were humanely euthanized once they had reached their humane endpoint.
# as §1, with “1:” for “6:”, “0.825” for “0.75”
# as §2
smiles,measurement,setting,value
"Cc1sc(C(=O)c2cncnc2N[C@@H]2C[C@H](COS(N)(=O)=O)[C@@H](O)C2)cc1[C@@H]1NCCc2ccc(Cl)cc21 [Compound I-263a, [(1R,2S,4R)-4-{[5-({4-[(1R)-7-chloro-1,2,3,4-tetrahydroisoquinolin-1-yl]-5-methyl-2-thienyl}carbonyl)pyrimidin-4-yl]amino}-2-hydroxycyclopentyl]methyl sulfamate]",tumor growth inhibition / antitumor activity,[1]; 8 tumors/group,very little tumor growth inhibition
same,tumors with slight growth delay,"[1]; delay from day 16-18, out of 8 implanted",one
same,tumor growth inhibition relative to vehicle-treated tumors,[2],did not show any tumor growth inhibition
